Source: patent publication US20050215531A1, “Use of edg receptor binding agents in cancer” (priority 2002, published 2005)

Tests used:
Type in all cases: cell-based, human
[1] = test system: tissue factor; assay: Clotting assay, tissue factor activity on HUVEC
Protocol: (§1) Human umbilical vein endothelial cells (HUVEC) are cultured at 37° C. and 5% CO2 in medium M199 supplemented with 20% SCS (HyClone, Logan, Utah), 1 U/ml heparin, 50 μg/ml ECGS, 2 mM glutamine, 100 U/ml penicillin and 0.1 mg/ml streptomycin. Cells are used for experiments up to passage number 5. Short-starved HUVEC are obtained by starving with 1% SCS-containing M199 for 5 h. Recombinant human VEGF165 is obtained from PromoCell (Heidelberg, Germany). Phospho-specific ERK½, p3B kinase polyclonal antibodies, nonphospho ERK½ antibodies and LumiGLO chemiluminescent reagent are from New England BioLabs (Beverly, Mass.), polyclonal IKB antibodies from Santa Cruz Biotechnology (Santa Cruz, Calif.). Peroxidase-conjugated donkey anti-rabbit immunoglobulin G (IgG) and sheep anti-mouse IgG are purchased from Amersham LIFE SCIENCE (Amersham Place, England). lmmobilon-P transfer membranes are products of Millipore (Bedford, Mass.). S is obtained from Sigma Chemical Co.; S1P is from Biomol. Compound A-phosphate stock solution is prepared by the following protocol. Compound A-phosphate is dissolved in methanol tracing with concentrated HCl (0.5 mg Compound A-phosphate in 500 μl of methanol plus 2 μl of HCl). Solvent from the resulting solution is evaporated under vacuum and the residue obtained is redissolved (variant 1) in 0.1% of defatted BSA solution in sterile deionized water (500 μl) or (variant 2) in 0.5% Triton X-100 in deionized water. The resulting stock solutions (2.5 mM) are sonicated and stored at 4° C.
Cells are seeded in 6-well plates at 80-90% confluency and grown overnight. Cells are scraped from the plates and analyzed for tissue factor activity according to the method as described in Clauss, M., J. Biol. Chem. 271,17629-17634 (1996), Mechtcheriakova, D., Blood 93,3811-3823 (1999). Briefly, after induction for 4 hours with VEGF (1.5 nM), TNF-α (100 U/ml), S (0.5-2 μM), S1P (0.5-2 μM), Compound A (0.5-2 μM), and Compound A-phosphate (0.5-2 μM), cells are washed twice and then scraped in 1 ml clotting buffer (12 mM sodium acetate, 7 mM diethylbarbitate and 130 mM sodium chloride; pH 7.4). 50 μl of resuspended cells are mixed with 50 μl of citrated plasma, and clotting times are determined after recalcfication with 50 μl of 20 mM CaCl2 solution at 37° C. TF-equivalents are determined by using a standard curve obtained from rabbit brain thromboplastin.
An important characteristic feature of both classical inflammatory stimulus TNF-α and the main angiogenic growth factor VEGF on endothellal cells is their potency to upregulate tissue factor. Compound A, Compound A-phosphate, S or S1P are tested whether they also do induce tissue factor on HUVEC. […] The data obtained together indicate that Compound A, Compound A-phosphate, S and S1P mechanistically work distinctly to anglogenic VEGF and inflammatory TNF-α.

[2] = test system: p38 kinase; assay: Western blot, p38 kinase activation in HUVEC
Protocol: as §1, with “Solvent from the resulting solution is evaporated under vacuum and the residue obtained is redissolved (variant 1) in 0.1% of defatted BSA solution in sterile deionized water (500 μl) or (variant 2) in 0.5% Triton X-100 in deionized water. The resulting stock solutions (2.5 mM) are sonicated and stored at 4° C.” left out

[3] = test system: JNK½; assay: Western blot, JNK½ activation in HUVEC
Protocol: as §1, with “Solvent from the resulting solution is evaporated under vacuum and the residue obtained is redissolved (variant 1) in 0.1% of defatted BSA solution in sterile deionized water (500 μl) or (variant 2) in 0.5% Triton X-100 in deionized water. The resulting stock solutions (2.5 mM) are sonicated and stored at 4° C.” left out

[4] = test system: E-Selectin; assay: E-Selectin expression in endothelial cells
[5] = test system: ERK½ MAP kinases; assay: Western blot, activation of ERK½ MAP kinases in HUVEC; conditions: HUVEC
Protocol: as §1
After various treatments, the cells are washed twice with cold PBS, lysed in 100 μl of Laemmli buffer, scraped and heated for 5 min at 95° C. Total cell lysates are separated by SDS-PAGE and transferred to Immobilon-P membrane. The membrane is blocked for 30 minutes with PBS containing 0.1% Tween-20 and 3% skim milk and incubated for 1 hour at RT with a primary antibody diluted in blocking buffer. The membrane obtained is washed three times for 5 minutes with PBS containing 0.1% Tween-20 and incubated with peroxidase-conjugated secondary antibody for 1 hour at RT. After a washing step, the membrane is incubated for 1 minute with ECL reagent and exposed to film as required. For reprobing with another antibody, the membrane is washed twice in PBS, stripped for 30 min at 55° C. with stripping buffer (62.5 mM Tris-HCL, pH 6.8, 2% SDS, 100 mM 2-mercaptoethanol) and washed three times for 5 minutes with PBS at RT. The membrane is stored wet wrapped in SaranWrap at 4° C. after each immunodetection.
Signal transduction via MAP idnases plays a key role in a variety of endothelial cell functions. Treatment of HUVEC with Compound A-phosphate at 0.5 μM may result in transient activation of ERK½ with a peak of phosphorylation/activation at 10 minutes and returning to baseline by 20 minutes (see e.g. FIG. 5). No activation of p38 kinase and JNK½ by Compound A-phosphate is detectable in HUVEC. […] To estimate the possible role of inflammatory/NFκB-dependent program in Compound A-phosphatestimulated bioresponses of endothelial cells, the membranes are reprobed with anti-IκB antibodies. IκB levels are not affected by Compound A-phosphate treatment.

[6] = test system: IκB; assay: Western blot reprobed with anti-IκB antibodies (NFκB-dependent program); conditions: endothelial cells
Protocol: as §1, with “Solvent from the resulting solution is evaporated under vacuum and the residue obtained is redissolved (variant 1) in 0.1% of defatted BSA solution in sterile deionized water (500 μl) or (variant 2) in 0.5% Triton X-100 in deionized water. The resulting stock solutions (2.5 mM) are sonicated and stored at 4° C.” left out

For `CCCCCCCCc1ccc(CCC(N)(CO)COP(=O)(O)O)cc1` (stereo not shown) [Compound A-phosphate], the “effect on TNF-α-induced tissue factor” value ([1]; TNF-α 100 U/ml) was “not TNF-α-induced”, the “effect on VEGF-induced tissue factor” value ([1]; VEGF 1.5 nM) was “slightly enhance” and the tissue factor activity ([1]; compound alone or in combinations, 0.5-2 μM, 4 hours) was “none of these compounds alone or in combinations may elevate tissue factor activity”. For the same compound, the “activation of p38 kinase” value [2] was “No activation”, the “activation of JNK½” value [3] was “No activation” and the E-Selectin expression [4] was “fail to induce”. For the same compound, the “time of ERK½ activation returning to baseline” value ([5]; 0.5 μM) was at most 20 min, the “time of peak of ERK½ phosphorylation/activation” value ([5]; 0.5 μM, transient activation) was 10 min and the “ERK½ activation, dose dependence” value ([5]; 0.5 versus 2 μM) was “dose-dependent manner, showing stronger activity at 2 μM”. The IκB levels [6] was “not affected”.
